Data on five compounds can be found in patent US10988523B2, “Modified lipidated Relaxin B chain peptides and their therapeutic use” (Sanofi, priority 2018, dated 2021).

*1 amine or outer side, *2 acyl side, *3 side chain or, on linkers, in order; H or OH if unused. Where a SMILES comes first, the peptide text is derived from it. Side-chain parts run from the residue outwards. [ ]: non-standard residue; d: D form. The star is where a group is joined. γGlu = O=C(O)[C@H](CCC(=O)[*:2])N[*:1]; Stearoyl = CCCCCCCCCCCCCCCCCC(=O)*; Palmitoyl = CCCCCCCCCCCCCCCC(=O)*; αMeK = C[C@](N)(CCCCN)C(=O)O; Nle = CCCC[C@H](N)C(=O)O; AEEA = NCCOCCOCC(=O)O; Aib = CC(C)(N)C(=O)O

For data set [1], the target named is T1, RXFP1 (Homo sapiens, UniProt Q9HBX9).
T1 construct: OVCAR5 cells expressing endogenous RXFP1; endogenous in cells; host or cells: OVCAR5 cells
T1 sequence (Q9HBX9 1-757): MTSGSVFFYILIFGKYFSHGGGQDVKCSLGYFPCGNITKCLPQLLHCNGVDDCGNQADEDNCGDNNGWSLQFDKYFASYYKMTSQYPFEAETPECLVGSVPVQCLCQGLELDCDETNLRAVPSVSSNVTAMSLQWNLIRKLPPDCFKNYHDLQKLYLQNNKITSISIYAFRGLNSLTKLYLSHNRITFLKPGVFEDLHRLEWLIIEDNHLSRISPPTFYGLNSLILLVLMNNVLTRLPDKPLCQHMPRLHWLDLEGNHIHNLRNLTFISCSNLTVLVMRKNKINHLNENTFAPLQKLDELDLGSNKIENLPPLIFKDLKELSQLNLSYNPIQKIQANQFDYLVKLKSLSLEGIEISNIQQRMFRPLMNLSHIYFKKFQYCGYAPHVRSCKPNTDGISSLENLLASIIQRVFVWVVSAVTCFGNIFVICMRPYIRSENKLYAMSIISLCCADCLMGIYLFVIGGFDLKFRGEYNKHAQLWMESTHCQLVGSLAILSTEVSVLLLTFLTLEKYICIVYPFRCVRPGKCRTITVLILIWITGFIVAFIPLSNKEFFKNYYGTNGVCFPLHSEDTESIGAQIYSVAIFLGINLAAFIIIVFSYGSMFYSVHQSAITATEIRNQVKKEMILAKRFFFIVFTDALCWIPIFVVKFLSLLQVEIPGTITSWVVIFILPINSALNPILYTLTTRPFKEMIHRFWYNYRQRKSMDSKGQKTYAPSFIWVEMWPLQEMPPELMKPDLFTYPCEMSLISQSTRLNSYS
Briefly: OVCAR5 cAMP assay (HTRF), RXFP1 agonist activity. The settings on record: for EC50: OVCAR5 cells, cAMP HTRF, read-out: EC50 (nM), OVCAR 5 cells (cAMP); for Emax: OVCAR-5, maximal cAMP relative to H2-relaxin maximum (100%), read-out: EMax, OVCAR 5 cells (cAMP). In kind it is cell-based. The gist of the method:
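OVCAR5 cells (endogenous RXFP1) pretreated 40 min at 37° C with 1 mM IBMX, then exposed to peptides in serum-free medium for 30 min at 37° C. Lysate cAMP read by HTRF; EC50 from variable-slope sigmoidal fit; Emax as % of H2-relaxin maximal cAMP in same run.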

A short description of data set [2]: Pharmacokinetic (PK) determination after i.v. or s.c. administration to rats. In kind it is in vivo, Sprague Dawley rats. Conditions: Sprague Dawley, Rat PK; for C0 / half-life: iv, 1 mg/kg i.v.; for C0: extrapolated plasma concentration at t=0, read-out: C0; for half-life / Cmax / Tmax / bioavailability: plasma; for half-life: read-out: T½ (converted); for Cmax / Tmax: sc, 3 mg/kg s.c.; for bioavailability: subcutaneous, 3 mg/kg s.c. vs 1 mg/kg i.v., dose-corrected AUC ratio. Put shortly: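 Sprague Dawley rats received peptide in PBS at 1 mg/kg i.v. or 3 mg/kg s.c., dose corrected for salts, solvent and purity. Plasma analysed by LC/MS after protein precipitation; non-compartmental PK, BLQ values set to zero, F% as dose-corrected s.c./i.v. AUC ratio.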

Take `CCCCCCCCCCCCCCCCCC(=O)N[C@@H](CCC(=O)N[C@@H](CCC(=O)N[C@@H](CCC(=O)NCCOCCOCC(=O)NCCOCCOCC(=O)NCCOCCOCC(=O)NCCCC[C@H](NC(=O)[C@H](CCCCNC(C)=O)NC(=O)[C@H](CCCCN)NC(=O)[C@H](CCCNC(=N)N)NC(=O)C(C)(C)NC(=O)[C@H](CO)NC(=O)[C@H](Cc1ccccc1)NC(=O)[C@@H](NC(=O)[C@H](CO)NC(=O)[C@H](CCCC)NC(=O)CNC(=O)[C@H](CCC(=O)O)NC(=O)C(C)(C)NC(=O)C(C)(C)NC(=O)[C@@H](NC(=O)[C@H](CCCCNC(C)=O)NC(=O)[C@H](C)NC(=O)[C@H](CCCNC(=N)N)NC(=O)[C@@H](NC(=O)[C@H](CCCCN)NC(=O)[C@H](CCC(=O)O)NC(=O)[C@H](CCCNC(=N)N)NC(=O)CNC(=O)[C@H](CCC(=O)O)NC(=O)[C@H](CC(C)C)NC(C)=O)C(C)C)[C@@H](C)CC)[C@@H](C)O)C(N)=O)C(=O)O)C(=O)O)C(=O)O` [compound 112] (Ac-LEGREKVRAK(Ac)I[Aib][Aib]EG[Nle]STFS[Aib]RKK(Ac)K([AEEA-AEEA-AEEA-γGlu-γGlu-γGlu-Stearoyl])-NH2): in data set [1], the EC50 (commonly the concentration that produces a half-maximal response) turned out to be 0.32 nM and the Emax (commonly the size of the effect at its maximum, as opposed to the concentration needed) is 88%. In addition, in data set [2], the C0 is 3500 nM; the half-life was 3.3 h; the Cmax (as a rule, the peak of the concentration-time curve) came to 2200 nM; the Tmax (in general, the time from dosing to the highest level) was 8 h. Further, the bioavailability in data set [2] was found to be 63%.

For `CCCCCCCCCCCCCCCC(=O)N[C@@H](CCC(=O)N[C@@H](CCC(=O)N[C@@H](CCC(=O)N[C@@H](CCC(=O)NCCCC[C@H](NC(=O)COCCOCCNC(=O)COCCOCCNC(=O)COCCOCCNC(=O)COCCOCCNC(=O)[C@H](CCCCNC(C)=O)NC(=O)[C@H](CCCCN)NC(=O)[C@H](CCCNC(=N)N)NC(=O)[C@](C)(CCCCN)NC(=O)[C@H](CO)NC(=O)[C@H](Cc1c[nH]c2ccccc12)NC(=O)[C@@H](NC(=O)[C@H](CO)NC(=O)[C@H](CCCC)NC(=O)CNC(=O)[C@H](CCC(=O)O)NC(=O)C(C)(C)NC(=O)C(C)(C)NC(=O)[C@@H](NC(=O)[C@H](CCCCNC(C)=O)NC(=O)[C@H](C)NC(=O)[C@H](CCCNC(=N)N)NC(=O)[C@@H](NC(=O)[C@H](CCCCN)NC(=O)[C@H](CCC(=O)O)NC(=O)[C@H](CCCNC(=N)N)NC(=O)CNC(=O)[C@H](CCC(=O)O)NC(=O)[C@H](CC(C)C)NC(C)=O)C(C)C)[C@@H](C)CC)[C@@H](C)O)C(N)=O)C(=O)O)C(=O)O)C(=O)O)C(=O)O` [compound 131] (Ac-LEGREKVRAK(Ac)I[Aib][Aib]EG[Nle]STWS[αMeK]RKK(Ac)[AEEA][AEEA][AEEA][AEEA]K([γGlu-γGlu-γGlu-γGlu-Palmitoyl])-NH2), in data set [1], the EC50 worked out at 0.26 nM and the Emax was found to be 92%. Further, in data set [2], the C0 is 2500 nM, the half-life was 6.3 h, the Cmax was found to be 1390 nM and the time of peak concentration (Tmax) was determined as 8 h. Moreover, the bioavailability in data set [2] was 82%.

As for `CCCCCCCCCCCCCCCC(=O)N[C@@H](CCC(=O)NCCCC[C@H](NC(=O)CC[C@H](NC(=O)CC[C@H](NC(=O)CC[C@H](NC(=O)COCCOCCNC(=O)COCCOCCNC(=O)COCCOCCNC(=O)COCCOCCNC(=O)[C@H](CCCCNC(C)=O)NC(=O)[C@H](CCCCN)NC(=O)[C@H](CCCNC(=N)N)NC(=O)[C@](C)(CCCCN)NC(=O)[C@H](CO)NC(=O)[C@H](Cc1c[nH]c2ccccc12)NC(=O)[C@@H](NC(=O)[C@H](CO)NC(=O)[C@H](CCCC)NC(=O)CNC(=O)[C@H](CCC(=O)O)NC(=O)C(C)(C)NC(=O)C(C)(C)NC(=O)[C@@H](NC(=O)[C@H](CCCCNC(C)=O)NC(=O)[C@H](C)NC(=O)[C@H](CCCNC(=N)N)NC(=O)[C@@H](NC(=O)[C@H](CCCCN)NC(=O)[C@H](CCC(=O)O)NC(=O)[C@H](CCCNC(=N)N)NC(=O)CNC(=O)[C@H](CCC(=O)O)NC(=O)[C@H](CC(C)C)NC(C)=O)C(C)C)[C@@H](C)CC)[C@@H](C)O)C(=O)O)C(=O)O)C(=O)O)C(N)=O)C(=O)O` [compound 136] (Ac-LEGREKVRAK(Ac)I[Aib][Aib]EG[Nle]STWS[αMeK]RKK(Ac)[AEEA][AEEA][AEEA][AEEA][γGlu][γGlu][γGlu]K([γGlu-Palmitoyl])-NH2), in data set [1], the EC50 was determined as 0.03 nM and the Emax is 92%. For the same compound, in data set [2], the C0 was 3000 nM, the half-life was 2.9 h, the Cmax amounted to 1870 nM and the Tmax was found to be 8 h. Further, the bioavailability in data set [2] was 86%.

As for `CCCCCCCCCCCCCCCC(=O)N[C@@H](CCC(=O)NCCCC[C@H](NC(=O)CC[C@H](NC(=O)CC[C@H](NC(=O)CC[C@H](NC(=O)COCCOCCNC(=O)COCCOCCNC(=O)COCCOCCNC(=O)COCCOCCNC(=O)[C@H](CCCCNC(C)=O)NC(=O)[C@H](CCCCN)NC(=O)[C@H](CCCNC(=N)N)NC(=O)[C@](C)(CCCCN)NC(=O)[C@H](CO)NC(=O)[C@H](Cc1ccccc1)NC(=O)[C@@H](NC(=O)[C@H](CO)NC(=O)[C@H](CCCC)NC(=O)CNC(=O)[C@H](CCC(=O)O)NC(=O)C(C)(C)NC(=O)C(C)(C)NC(=O)[C@@H](NC(=O)[C@H](CCCCNC(C)=O)NC(=O)[C@H](C)NC(=O)[C@H](CCCNC(=N)N)NC(=O)[C@@H](NC(=O)[C@H](CCCCN)NC(=O)[C@H](CCC(=O)O)NC(=O)[C@H](CCCNC(=N)N)NC(=O)CNC(=O)[C@H](CCC(=O)O)NC(=O)[C@H](CC(C)C)NC(C)=O)C(C)C)[C@@H](C)CC)[C@@H](C)O)C(=O)O)C(=O)O)C(=O)O)C(N)=O)C(=O)O` [compound 145] (Ac-LEGREKVRAK(Ac)I[Aib][Aib]EG[Nle]STFS[αMeK]RKK(Ac)[AEEA][AEEA][AEEA][AEEA][γGlu][γGlu][γGlu]K([γGlu-Palmitoyl])-NH2), in data set [1], the EC50 was 0.4 nM and the Emax was 99%. Besides, in data set [2], the C0 was 3440 nM, the half-life is 5.4 h, the Cmax was 1670 nM and the Tmax turned out to be 8 h. Further, the bioavailability in data set [2] amounted to 70%.

Turning to `CCCCCCCCCCCCCCCC(=O)N[C@@H](CCC(=O)NCCCC[C@H](NC(=O)CC[C@H](NC(=O)CC[C@H](NC(=O)CC[C@H](NC(=O)COCCOCCNC(=O)COCCOCCNC(=O)COCCOCCNC(=O)COCCOCCNC(=O)[C@H](CCCCNC(C)=O)NC(=O)[C@H](C)NC(=O)[C@H](CCCNC(=N)N)NC(=O)[C@](C)(CCCCN)NC(=O)[C@H](CO)NC(=O)[C@H](Cc1ccccc1)NC(=O)[C@@H](NC(=O)[C@H](CO)NC(=O)[C@H](CCCC)NC(=O)CNC(=O)[C@H](CCC(=O)O)NC(=O)C(C)(C)NC(=O)C(C)(C)NC(=O)[C@@H](NC(=O)[C@H](CCCCNC(C)=O)NC(=O)[C@H](C)NC(=O)[C@H](CCCNC(=N)N)NC(=O)[C@@H](NC(=O)[C@H](CCCCN)NC(=O)[C@H](CCC(=O)O)NC(=O)[C@H](CCCNC(=N)N)NC(=O)CNC(=O)[C@H](CCC(=O)O)NC(=O)[C@H](CC(C)C)NC(C)=O)C(C)C)[C@@H](C)CC)[C@@H](C)O)C(=O)O)C(=O)O)C(=O)O)C(N)=O)C(=O)O` [compound 149] (Ac-LEGREKVRAK(Ac)I[Aib][Aib]EG[Nle]STFS[αMeK]RAK(Ac)[AEEA][AEEA][AEEA][AEEA][γGlu][γGlu][γGlu]K([γGlu-Palmitoyl])-NH2), in data set [1], the EC50 came out at 0.11 nM and the maximal response (Emax) was determined as 87%. Besides, in data set [2], the C0 was 3330 nM, the half-life is 4.33 h, the peak level (Cmax) was 2500 nM and the Tmax was 6 h. The bioavailability in data set [2] was determined as 128%.
